Like-named read-outs stand apart in the source and are kept apart here. Some results are limits rather than exact numbers.

One data set addresses HDAC1 (Homo sapiens (Human), UniProt Q13547). In words: HDAC subtype enzymatic activity assay, HDAC1. Format: biochemical. The following applies: read-out: HADC1 Inhibition rate (%). As for the experimental part:
The inhibitory activity of the compounds of the present application on HDAC1-5 and 7-11 was evaluated by an enzymatic activity assay.
1 M Trypsin and 10 M TSA were added, and the plate was incubated at room temperature for 15 min. […] IC50 was obtained by fitting using GraphPadPrism 7.0 software.

Data set [1] deals with acetylation level of α-tubulin in A375 cells. The data set is described as follows: Assay on acetylation level of α-tubulin, A375 cells. The class given is cell-based. Particulars: Homo sapiens, A-375, 6 h. As for the experimental part:
(§1) A375/HCT116/HCC827 cells at a logarithmic growth phase were taken, digested with a […] (trypsin), centrifuged, counted, and plated in a 96-well plate at an appropriate cell density (30,000 cells/well) at 100 µL/well, and an appropriate amount of PBS was added around the plate for water sealing. The next day, the cells were treated with the compounds at different concentrations (starting at 100 μM, 5-fold dilution, 9 concentration gradients). After 6 h, the medium was pipetted out and the cells were washed twice with 100 μL of PBST. The cells were then immobilized in 4% paraformaldehyde, and the plate was incubated at room temperature for 20 min. The stationary liquid was discarded and the cells were washed with PBST. 150 μL of special blocking buffer (containing 1% Triton-100) was added to each well for blocking at room temperature for 2 h, and the plate was washed with PBS to remove excess blocking buffer. α-tubulin (DM1A) mouse mAb and acetyl-α-tubulin (Lys40) (D20G3) XP rabbit mAb were diluted at a 1:2000 ratio with a blocking buffer containing 0.033% Triton-100. The dilutions were added to the 96-well plate and the plate was incubated overnight at 4° C. Meanwhile, a blank control group was set. The next day, the plate was washed twice with PBST. […] Fluorescence signals at 700 nm and 800 nm were detected with a Li-COR Odyssey two-color near-infrared laser imager.

Data set [2] has as its system acetylation level of α-tubulin in HCC827 cells. In words: Assay on acetylation level of α-tubulin, HCC827 cells. The class given is cell-based. The following applies: Homo sapiens, 6 h. As to the method:
as §1

Data set [3] in a line: Phase I metabolic stability in dog liver microsomes (DLMs). Format: in vitro ADME, beagle dogs. Also noted: half-life: dose or concentration left out as unconfirmed. Particulars: DLM; for Remaining rate (NCF = 60 min): buffer instead of NADPH regeneration system; for Remaining rate (T = 60 min): with NADPH; for CLint scaled at 1 µM / half-life / microsomal CLint at 1 M: beagle, dog, liver microsomes, pH 7.4; for microsomal CLint at 1 M: read-out: CLint (mic). As to the method:
Phase I metabolic stability of the test compounds in liver microsomes of CD-1 mice (MLMs), Sprague-Dawley rats (RLMs), beagle dogs (DLMs), cynomolgus monkeys (CLMs), and humans (HLMs) was evaluated.
The animal and human liver microsomes used in the test system were purchased from Xenotech, Corning, or other qualified suppliers and stored in a freezer at a temperature below −60° C. prior to use.
The test samples and control compounds were separately incubated with animal and human liver microsomes at 37±1° C. for a period of incubation time up to 60 min. The samples were removed at the indicated time points, and the reaction was stopped with acetonitrile or other organic solvents containing an internal standard. After centrifugation, the resulting supernatants were assayed by liquid chromatography-tandem mass spectrometry (LC-MS/MS).
73.21 g of dipotassium hydrogenphosphate trihydrate and 10.78 g of potassium dihydrogenphosphate were dissolved in 4000 mL of ultrapure water. The solution was adjusted to pH 7.40±0.10 with 10% phosphoric acid or 1 M potassium hydroxide to make a final concentration of 100 mM.
The test sample powder was prepared into a stock solution at a certain concentration with DMSO or other organic solvents, which was then further diluted with a proper organic solvent.
Microsomes of each species were diluted into a 2× working solution with a 100 mM potassium phosphate buffer. The final concentration of the microsomes in the reaction system was 0.5 mg/mL.
An appropriate amount of nicotinamide adenine dinucleotide phosphate (NADP) and isocitric acid (ISO) powder was weighed out, dissolved in a magnesium chloride solution, and shaken and mixed well. An appropriate amount of isocitrate dehydrogenase (IDH) was added, and the mixture was mixed well by gently turning upside down. The final concentrations in the reaction system were: 1 mM NADP, 1 mM magnesium chloride, 6 mM ISO, and 1 unit/mL IDH.
Incubation was performed in a 96-well plate. Eight incubation plates were prepared and designated T0, T5, T15, T30, T45, T60, Blank60, and NCF60, respectively. The first 6 plates corresponded to reaction time points of 0, 5, 15, 30, 45, and 60 min, respectively. No test sample or control compound was added to the Blank60 plate, and samples were taken after 60 min of incubation. In the NCF60 plate, incubation was performed for 60 min using the potassium phosphate buffer instead of the NADPH regeneration system solution. Three replicates were made for samples in all conditions.
The microsomes and the test sample or control compound were mixed, and then the incubation plates Blank60, T5, T15, T30, T45, and T60 except for TO and NCF60 were placed in a 37° C. water bath for pre-incubation for about 10 min. In the incubation plate TO, a stop solution was first added, followed by addition of the NADPH regeneration system working solution, and 98 μL of the potassium phosphate buffer was added to each sample well of the incubation plate NCF60 to initiate the reaction. After the pre-incubations of the incubation plates Blank60, T5, T15, T30, T45, and T60 were completed, 98 μL of the NADPH regeneration system working solution was added to each sample well to initiate the reaction. The reaction temperature was 37±1° C., the final volume of the reaction was 200 μL, and the reaction system included 0.5 mg/mL microsomes, […], 1 mM NADP, 6 mM ISO, and 1 unit/mL IDH.
At 5 min, 15 min, 30 min, 45 min, and 60 min, a cold stop solution containing an internal standard was added to the reaction plate to stop the reaction.
All the reaction plates after the reaction was stopped were shaken well and centrifuged at 3220×g at 4° C. for 20 min. After the supernatant was diluted according to a certain proportion, LC-MS/MS analysis was performed.
Sample analysis was performed by the liquid chromatography-tandem mass spectrometry (LC-MS/MS) method without standard curves and quality control samples. […]

Chain of HDAC1 (Q13547 whole entry): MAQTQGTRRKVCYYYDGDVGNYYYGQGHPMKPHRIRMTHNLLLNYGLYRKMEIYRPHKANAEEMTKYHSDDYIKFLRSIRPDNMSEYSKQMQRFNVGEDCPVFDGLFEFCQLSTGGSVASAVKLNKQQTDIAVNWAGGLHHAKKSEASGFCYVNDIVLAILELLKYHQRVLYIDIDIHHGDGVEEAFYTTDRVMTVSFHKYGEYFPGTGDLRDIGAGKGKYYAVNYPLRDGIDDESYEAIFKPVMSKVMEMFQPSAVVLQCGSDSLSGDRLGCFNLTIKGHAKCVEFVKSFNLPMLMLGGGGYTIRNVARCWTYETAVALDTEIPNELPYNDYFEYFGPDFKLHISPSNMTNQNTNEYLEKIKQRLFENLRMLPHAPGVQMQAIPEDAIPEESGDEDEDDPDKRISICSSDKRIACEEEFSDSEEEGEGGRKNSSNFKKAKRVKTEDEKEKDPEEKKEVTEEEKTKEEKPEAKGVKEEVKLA

Regarding `CC(F)(F)C(=O)N[C@@H]1CCCC[C@H]1N1Cc2ccc(-c3nnc(C(F)F)o3)cc2S1(=O)=O` [Compound 1], the inhibition at 1 µM on HDAC1 (1 μM) is 8.57%. Moreover, the inhibition at 10 µM on HDAC1 (10 μM) was -3.17%. In addition, the EC50 in data set [1] came to 393 ± 192 nM. Moreover, the EC50 in data set [2] came to 338 nM. In data set [3], the “Remaining rate (NCF = 60 min)” value stood at 98.9%, the “Remaining rate (T = 60 min)” value stood at 86.6%, the CLint scaled at 1 µM is less than 13.8 mL/min/kg and the half-life was greater than 2.42 h. In data set [3], the microsomal CLint at 1 M is less than 9.6 µL/min/mg.
For the molecule `O=C(N[C@@H]1CCCC[C@H]1N1Cc2ccc(-c3nnc(C(F)F)o3)cc2S1(=O)=O)C(F)F` [Compound 2], at HDAC1, the inhibition at 1 µM was -11.9% and the inhibition at 10 µM was -3.91%. The molecule also registered an EC50 in data set [1] of 202 ± 115 nM. In addition, a half-maximal response in data set [2] (EC50) required 288 ± 49.3 nM. Further, in data set [3], the “Remaining rate (NCF = 60 min)” value was determined as 90.9%, the “Remaining rate (T = 60 min)” value amounted to 85.8%, the CLint scaled at 1 µM was less than 13.8 mL/min/kg and the half-life was greater than 2.42 h. In addition, the microsomal CLint at 1 M in data set [3] is less than 9.6 µL/min/mg.

The record behind these values is patent publication US20250257060A1, “OXADIAZOLE COMPOUND, PHARMACEUTICAL COMPOSITION COMPRISING SAME, AND USE THEREOF” (SUZHOU GENHOUSE BIO CO., LTD., priority 2022, published 2025).
